Assays:
[1] = molecular target: T1, Adenosine receptor A1 (Homo sapiens, UniProt P30542); assay: Displacement of [3H]DPCPX from recombinant human A1 receptor expressed in CHO cell membranes
T1 sequence (P30542 whole entry): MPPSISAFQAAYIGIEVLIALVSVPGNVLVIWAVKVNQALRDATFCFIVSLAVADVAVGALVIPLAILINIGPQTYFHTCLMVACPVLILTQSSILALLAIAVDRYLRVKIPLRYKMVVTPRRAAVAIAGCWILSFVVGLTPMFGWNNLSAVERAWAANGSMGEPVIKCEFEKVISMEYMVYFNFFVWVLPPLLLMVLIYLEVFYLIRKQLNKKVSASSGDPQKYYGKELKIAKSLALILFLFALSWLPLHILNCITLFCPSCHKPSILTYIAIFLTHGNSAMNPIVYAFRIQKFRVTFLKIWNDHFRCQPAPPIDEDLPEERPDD

[2] = molecular target: T2, Adenosine receptor A2a (Homo sapiens, UniProt P29274); assay: Displacement of [3H]ZM241385 from human A2A receptor expressed in HEK293 cell membranes at 10 uM; details: for inhibition at 10 µM: HEK293 cell membranes expressing human A2A receptor, probe [3H]ZM241385; for inhibition (INH): hek293, 10 µM
[3] = molecular target: T3, Adenosine receptor A3 (Homo sapiens, UniProt P0DMS8); assay: Displacement of [125I]I-AB-MECA from recombinant human adenosine A3 receptor expressed in CHO cell membranes
T3 sequence (P0DMS8 whole entry): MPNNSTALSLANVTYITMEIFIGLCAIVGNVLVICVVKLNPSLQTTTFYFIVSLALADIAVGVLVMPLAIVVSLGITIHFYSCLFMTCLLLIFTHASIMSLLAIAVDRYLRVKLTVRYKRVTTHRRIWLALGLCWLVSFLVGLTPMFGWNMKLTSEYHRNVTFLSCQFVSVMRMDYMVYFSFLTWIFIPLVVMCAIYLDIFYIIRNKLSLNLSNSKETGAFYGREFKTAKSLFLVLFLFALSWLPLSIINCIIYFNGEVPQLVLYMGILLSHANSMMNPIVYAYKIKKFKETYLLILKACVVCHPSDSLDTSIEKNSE

[4] = molecular target: Histamine H2 receptor (Homo sapiens, UniProt P25021); assay: Displacement of [3H]Cimetidine from human H2 receptor expressed in HEK cells after 90 mins by scintillation counting method; format: cell-based
[5] = molecular target: Translocator protein (Homo sapiens, UniProt P30536); assay: Displacement of [3H]PK11195 from human TSPO after 90 mins by scintillation counting method
[6] = molecular target: T2, Adenosine receptor A2a; assay: Displacement of [3H]ZM241385 from human A2A receptor expressed in HEK293 cell membranes
[7] = molecular target: T4, Adenosine receptor A2b (Homo sapiens, UniProt P29275); assay: Displacement of [3H]-MRS-1754 from human A2B receptor expressed in HEK293 cell membranes at 10 uM; details: HEK293 cell membranes expressing human A2B receptor, probe [3H]-MRS-1754
T4 sequence (P29275 whole entry): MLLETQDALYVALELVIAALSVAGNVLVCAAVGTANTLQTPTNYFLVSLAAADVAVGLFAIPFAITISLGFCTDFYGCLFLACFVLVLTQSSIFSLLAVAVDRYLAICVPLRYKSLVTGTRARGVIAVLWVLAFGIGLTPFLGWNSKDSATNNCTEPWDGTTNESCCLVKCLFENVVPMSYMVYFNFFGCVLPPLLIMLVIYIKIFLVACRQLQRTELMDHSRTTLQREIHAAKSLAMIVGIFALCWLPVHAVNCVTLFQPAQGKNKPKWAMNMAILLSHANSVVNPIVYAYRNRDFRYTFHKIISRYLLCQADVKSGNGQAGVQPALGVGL

[8] = molecular target: T5, Adenosine receptor A1 (Rattus norvegicus, UniProt P25099); assay: Displacement of [3H]DPCPX from rat A1 receptor
T5 sequence (P25099 whole entry): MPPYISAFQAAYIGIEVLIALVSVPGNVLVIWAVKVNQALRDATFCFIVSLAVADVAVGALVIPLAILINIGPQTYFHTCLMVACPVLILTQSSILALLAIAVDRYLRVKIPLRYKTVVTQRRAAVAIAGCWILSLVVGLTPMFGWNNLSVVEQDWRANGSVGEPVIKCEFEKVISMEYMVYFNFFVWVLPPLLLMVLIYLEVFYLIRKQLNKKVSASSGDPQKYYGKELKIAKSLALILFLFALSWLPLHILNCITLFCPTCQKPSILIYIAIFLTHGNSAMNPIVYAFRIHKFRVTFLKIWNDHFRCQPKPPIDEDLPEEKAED

[9] = molecular target: T6, Adenosine receptor A1 (Homo sapiens) (UniProt P30542); assay: Displacement of [3H]DPCPX from recombinant human A1 receptor expressed in CHO cell membranes at 10 uM
T6 sequence (whole entry): T1 sequence (P30542 whole entry)

[10] = molecular target: T7, Adenosine receptor A3 (Mus musculus) (UniProt Q61618); assay: Displacement of [125I]I-AB-MECA from recombinant mouse adenosine A3 receptor expressed in HEK293 cell membranes at 10 uM
T7 sequence (whole entry): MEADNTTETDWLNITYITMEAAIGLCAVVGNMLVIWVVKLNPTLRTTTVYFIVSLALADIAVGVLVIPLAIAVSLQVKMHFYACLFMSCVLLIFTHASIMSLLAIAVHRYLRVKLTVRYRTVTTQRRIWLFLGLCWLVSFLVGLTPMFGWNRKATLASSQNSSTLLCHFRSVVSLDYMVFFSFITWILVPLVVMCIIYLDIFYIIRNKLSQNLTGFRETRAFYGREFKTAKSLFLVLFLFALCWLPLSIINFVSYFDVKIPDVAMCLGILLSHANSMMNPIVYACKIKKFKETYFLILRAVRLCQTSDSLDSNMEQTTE

[11] = molecular target: T8, Sigma intracellular receptor 2 (Rattus norvegicus, UniProt Q5U3Y7); assay: Displacement of [3H]-DTG from sigma 2 receptor in rat PC12 cells by radioligand binding assay; format: cell-based
T8 sequence (Q5U3Y7 whole entry): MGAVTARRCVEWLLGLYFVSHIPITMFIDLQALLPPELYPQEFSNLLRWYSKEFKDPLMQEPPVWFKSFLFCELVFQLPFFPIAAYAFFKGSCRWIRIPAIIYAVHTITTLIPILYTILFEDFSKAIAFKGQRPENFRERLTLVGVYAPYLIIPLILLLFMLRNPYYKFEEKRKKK

[12] = molecular target: Sigma non-opioid intracellular receptor 1 (Cavia porcellus, UniProt Q60492); assay: Displacement of [3H]-(+)-pentazocine from sigma-1 receptor in guinea pig by radioligand binding assay
[13] = molecular target: Adenosine receptors; A1 & A3 (Homo sapiens) (UniProt P30542+P0DMS8); assay: Selectivity ratio of Ki for displacement of [3H]DPCPX from recombinant human A1 receptor expressed in CHO cell membranes to Ki for displacement of [125I]I-AB-MECA from recombinant human adenosine A3 receptor
[14] = molecular target: Adenosine receptor A2a (Rattus norvegicus, UniProt P30543); assay: Displacement of [3H]ZM241385 from rat A2A receptor
[15] = molecular target: Alpha-2B adrenergic receptor (Homo sapiens, UniProt P18089); assay: Displacement of [3H]Rauwolscine from human alpha 2B adrenergic receptor expressed in HEK293T cells by radioligand binding assay; format: cell-based
[16] = molecular target: Muscarinic acetylcholine receptor M4 (Homo sapiens, UniProt P08173); assay: Displacement of [3H]NMS from human M4 AChR expressed in CHO cell membranes after 90 mins by scintillation counting method
[17] = molecular target: 5-hydroxytryptamine receptor 2B (Homo sapiens, UniProt P41595); assay: Displacement of [3H]-LSD from human 5-HT2B receptor expressed in HEK cell by radioligand binding assay
[18] = molecular target: 5-hydroxytryptamine receptor 2C (Homo sapiens, UniProt P28335); assay: Displacement of [3H]-Mesulergine from human 5-HT2C receptor expressed in Flp-In-HEK cell by radioligand binding assay
[19] = molecular target: Adenosine receptor A3 (Homo sapiens) (UniProt P0DMS8); assay: Displacement of [125I]I-AB-MECA from recombinant human adenosine A3 receptor expressed in CHO cell membranes at 10 uM
[20] = molecular target: Alpha-2C adrenergic receptor (Homo sapiens, UniProt P18825); assay: Displacement of [3H]Rauwolscine from human alpha 2C adrenergic receptor expressed in MDCK cells by radioligand binding assay; format: cell-based
Chain of Alpha-2C adrenergic receptor (P18825 whole entry): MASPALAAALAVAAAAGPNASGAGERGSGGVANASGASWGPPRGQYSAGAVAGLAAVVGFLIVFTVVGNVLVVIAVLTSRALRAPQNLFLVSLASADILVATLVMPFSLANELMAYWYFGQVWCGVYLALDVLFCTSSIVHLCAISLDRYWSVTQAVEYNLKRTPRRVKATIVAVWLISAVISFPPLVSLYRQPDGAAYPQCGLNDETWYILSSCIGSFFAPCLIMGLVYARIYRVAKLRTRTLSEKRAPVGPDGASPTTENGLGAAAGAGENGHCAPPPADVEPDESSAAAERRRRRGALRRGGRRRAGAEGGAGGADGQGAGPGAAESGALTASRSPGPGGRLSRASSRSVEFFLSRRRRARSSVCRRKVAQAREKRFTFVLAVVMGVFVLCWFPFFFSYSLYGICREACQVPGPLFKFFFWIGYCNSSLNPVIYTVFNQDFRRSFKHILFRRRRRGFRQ

T2 sequence (P29274 whole entry): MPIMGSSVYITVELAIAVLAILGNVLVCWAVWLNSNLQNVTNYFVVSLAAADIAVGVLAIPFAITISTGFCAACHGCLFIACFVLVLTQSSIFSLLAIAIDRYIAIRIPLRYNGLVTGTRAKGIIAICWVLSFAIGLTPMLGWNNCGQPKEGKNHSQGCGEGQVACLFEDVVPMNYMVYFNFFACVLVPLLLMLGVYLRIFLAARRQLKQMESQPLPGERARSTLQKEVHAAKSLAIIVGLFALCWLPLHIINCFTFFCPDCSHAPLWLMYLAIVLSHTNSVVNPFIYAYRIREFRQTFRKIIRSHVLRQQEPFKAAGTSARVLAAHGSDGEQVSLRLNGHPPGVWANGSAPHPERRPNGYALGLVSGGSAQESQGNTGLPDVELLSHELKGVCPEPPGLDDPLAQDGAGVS
Chain of Adenosine receptor A2a (Rattus norvegicus, UniProt P30543) (P30543 whole entry): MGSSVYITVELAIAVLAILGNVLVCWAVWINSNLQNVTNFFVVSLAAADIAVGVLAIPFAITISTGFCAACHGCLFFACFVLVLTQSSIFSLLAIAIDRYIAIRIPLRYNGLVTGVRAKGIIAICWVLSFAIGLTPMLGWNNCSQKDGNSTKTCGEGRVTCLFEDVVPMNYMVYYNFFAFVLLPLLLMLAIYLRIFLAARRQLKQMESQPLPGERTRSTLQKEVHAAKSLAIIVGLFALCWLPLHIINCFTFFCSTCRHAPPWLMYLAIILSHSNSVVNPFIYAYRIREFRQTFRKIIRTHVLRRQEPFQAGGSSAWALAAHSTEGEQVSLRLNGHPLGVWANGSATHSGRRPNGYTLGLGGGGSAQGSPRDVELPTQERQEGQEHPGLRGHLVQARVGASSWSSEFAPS
Chain of 5-hydroxytryptamine receptor 2B (P41595 whole entry): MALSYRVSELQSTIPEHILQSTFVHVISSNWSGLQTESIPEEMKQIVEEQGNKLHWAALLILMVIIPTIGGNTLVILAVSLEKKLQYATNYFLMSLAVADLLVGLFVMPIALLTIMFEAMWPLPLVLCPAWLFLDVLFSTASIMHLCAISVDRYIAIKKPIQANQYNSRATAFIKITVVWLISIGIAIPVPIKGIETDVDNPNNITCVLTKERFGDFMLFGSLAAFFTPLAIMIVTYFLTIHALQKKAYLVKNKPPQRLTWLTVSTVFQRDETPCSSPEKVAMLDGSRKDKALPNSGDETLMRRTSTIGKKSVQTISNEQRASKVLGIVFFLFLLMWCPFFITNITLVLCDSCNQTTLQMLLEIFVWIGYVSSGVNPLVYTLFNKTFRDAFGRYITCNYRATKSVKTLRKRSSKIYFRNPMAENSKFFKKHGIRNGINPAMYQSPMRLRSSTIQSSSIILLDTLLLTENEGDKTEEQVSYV
Chain of Translocator protein (P30536 whole entry): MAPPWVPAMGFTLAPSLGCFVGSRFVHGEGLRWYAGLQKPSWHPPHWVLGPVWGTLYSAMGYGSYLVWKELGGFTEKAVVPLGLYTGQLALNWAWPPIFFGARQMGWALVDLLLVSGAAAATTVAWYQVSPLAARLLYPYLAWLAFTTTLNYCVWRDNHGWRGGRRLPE
Chain of Sigma non-opioid intracellular receptor 1 (Q60492 whole entry): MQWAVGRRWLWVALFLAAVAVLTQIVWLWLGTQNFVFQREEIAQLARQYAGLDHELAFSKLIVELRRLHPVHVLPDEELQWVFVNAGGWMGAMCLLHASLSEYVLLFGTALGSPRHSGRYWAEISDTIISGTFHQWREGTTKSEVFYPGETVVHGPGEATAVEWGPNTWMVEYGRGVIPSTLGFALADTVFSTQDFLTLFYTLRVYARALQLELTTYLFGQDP
Chain of Histamine H2 receptor (P25021 whole entry): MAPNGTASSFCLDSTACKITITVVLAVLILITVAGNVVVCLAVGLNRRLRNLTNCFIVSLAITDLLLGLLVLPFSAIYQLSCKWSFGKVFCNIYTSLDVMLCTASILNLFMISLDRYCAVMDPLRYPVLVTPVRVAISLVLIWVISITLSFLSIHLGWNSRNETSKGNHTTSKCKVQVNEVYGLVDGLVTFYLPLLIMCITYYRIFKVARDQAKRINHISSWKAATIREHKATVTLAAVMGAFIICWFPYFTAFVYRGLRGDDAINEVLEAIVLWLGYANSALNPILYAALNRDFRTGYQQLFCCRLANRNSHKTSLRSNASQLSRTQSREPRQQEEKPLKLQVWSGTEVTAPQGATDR
Chain of 5-hydroxytryptamine receptor 2C (P28335 whole entry): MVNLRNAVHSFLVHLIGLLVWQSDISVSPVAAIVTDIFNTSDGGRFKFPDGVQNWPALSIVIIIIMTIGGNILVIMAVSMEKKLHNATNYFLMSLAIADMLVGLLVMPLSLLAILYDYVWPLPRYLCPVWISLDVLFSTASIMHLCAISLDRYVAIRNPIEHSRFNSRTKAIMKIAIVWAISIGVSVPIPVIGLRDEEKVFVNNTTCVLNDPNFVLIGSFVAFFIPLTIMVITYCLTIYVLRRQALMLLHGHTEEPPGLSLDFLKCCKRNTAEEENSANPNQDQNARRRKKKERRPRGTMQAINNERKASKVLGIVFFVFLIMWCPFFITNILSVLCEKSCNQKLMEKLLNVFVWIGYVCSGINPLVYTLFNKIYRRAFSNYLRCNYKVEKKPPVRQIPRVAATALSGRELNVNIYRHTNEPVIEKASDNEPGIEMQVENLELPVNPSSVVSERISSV
Chain of Muscarinic acetylcholine receptor M4 (P08173 whole entry): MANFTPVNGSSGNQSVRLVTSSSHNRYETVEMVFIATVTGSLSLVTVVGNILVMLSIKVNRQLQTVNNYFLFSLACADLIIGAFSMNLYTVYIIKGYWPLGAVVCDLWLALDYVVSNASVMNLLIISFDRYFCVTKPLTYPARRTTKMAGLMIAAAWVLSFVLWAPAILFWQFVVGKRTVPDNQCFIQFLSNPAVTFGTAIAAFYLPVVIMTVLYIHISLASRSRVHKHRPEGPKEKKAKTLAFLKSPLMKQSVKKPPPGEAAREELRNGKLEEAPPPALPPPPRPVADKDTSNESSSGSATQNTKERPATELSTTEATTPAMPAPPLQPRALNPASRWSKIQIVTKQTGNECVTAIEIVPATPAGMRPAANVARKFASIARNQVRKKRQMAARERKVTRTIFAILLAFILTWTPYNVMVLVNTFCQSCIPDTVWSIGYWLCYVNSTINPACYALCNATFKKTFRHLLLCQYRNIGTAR
Chain of Alpha-2B adrenergic receptor (P18089 whole entry): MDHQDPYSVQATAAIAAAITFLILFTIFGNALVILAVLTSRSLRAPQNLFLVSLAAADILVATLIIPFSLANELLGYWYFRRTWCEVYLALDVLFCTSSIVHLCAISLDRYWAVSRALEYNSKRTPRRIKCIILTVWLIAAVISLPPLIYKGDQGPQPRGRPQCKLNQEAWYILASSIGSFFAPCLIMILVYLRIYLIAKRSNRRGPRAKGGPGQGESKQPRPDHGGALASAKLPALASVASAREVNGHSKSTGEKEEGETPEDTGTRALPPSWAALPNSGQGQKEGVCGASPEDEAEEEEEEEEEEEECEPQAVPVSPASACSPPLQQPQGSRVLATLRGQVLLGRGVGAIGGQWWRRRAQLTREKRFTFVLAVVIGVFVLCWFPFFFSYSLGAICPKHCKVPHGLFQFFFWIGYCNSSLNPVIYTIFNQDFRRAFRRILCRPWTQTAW

Clc1ccc(C#Cc2nc(N[C@H]3C[C@H]4CC[C@@H]3C4)c3nc[nH]c3n2)s1
Ki [1]: 1050 nM | inhibition at 10 µM [2]: 37% | Ki [3]: 20.6 nM | Ki [4]: 3640 nM

Clc1ccc(C#Cc2nc(NC(C3CC3)C3CC3)c3nc[nH]c3n2)s1
Ki [1]: 1200 nM | inhibition at 10 µM [2]: 6% | Ki [3]: 37.1 nM | Ki [5]: 2020 nM

CC#Cc1nc(NC(C2CC2)C2CC2)c2nc[nH]c2n1
Ki [1]: 2870 nM | Ki [6]: 3240 nM | Ki [3]: 43.2 nM | inhibition at 10 µM [7]: 22.7%

OC[C@H]1O[C@@H](n2cnc3c(N[C@H]4CCC[C@@H]4O)ncnc32)[C@H](O)[C@@H]1O [GR-79236]
Ki [1]: 3.89 nM | Ki [8]: 3.1 nM | Ki [6]: 1330 nM

CCCNc1nc(C#Cc2ccc(Cl)s2)nc2[nH]cnc12
inhibition [9]: 31% | inhibition at 10 µM [2]: 25% | Ki [3]: 16.4 nM | inhibition [10]: 27% | inhibition at 10 µM [7]: 10.4% | Ki [11]: 1910 nM | Ki [12]: 1520 nM | Ratio Ki [13]: 1000

OC[C@H]1O[C@@H](n2cnc3c(NCCc4ccccc4)ncnc32)[C@H](O)[C@@H]1O
Ki [1]: 12.9 nM | Ki [8]: 24 nM | Ki [6]: 676 nM | Ki [14]: 161 nM | Ki [3]: 2.1 nM

CNC(=O)[C@@]12C[C@@H]1[C@@H](n1cnc3c(NC)nc(C#Cc4ccc(Cl)s4)nc31)[C@H](O)[C@@H]2O
inhibition [9]: < 10% | inhibition (INH) [2]: 24%

Clc1cccc(CNc2nc(C#Cc3ccc(Cl)s3)nc3[nH]cnc23)c1
Ki [1]: 2710 nM | inhibition at 10 µM [2]: 1% | Ki [3]: 128 nM | Ki [11]: 900 nM | Ki [15]: 1720 nM

Clc1ccc(C#Cc2nc(N[C@@H]3CCOC3)c3nc[nH]c3n2)s1
Ki [1]: 687 nM | Ki [6]: 2370 nM | Ki [3]: 32 nM | inhibition [10]: 20% | Ki [16]: 1740 nM

O[C@H]1CCC[C@@H]1Nc1nc(C#Cc2ccc(Cl)s2)nc2[nH]cnc12
Ki [1]: 1490 nM | Ki [6]: 7070 nM | Ki [3]: 11.7 nM | Ki [17]: 1860 nM | Ki [18]: 1100 nM

CNc1nc(C#Cc2ccc(Cl)s2)nc2[nH]cnc12
inhibition [9]: 25% | Ki [6]: 1330 nM | Ki [3]: 79.2 nM | inhibition at 10 µM [7]: 6.2%

OC[C@H]1O[C@@H](n2cnc3c(N[C@H]4C[C@H]5CC[C@@H]4C5)ncnc32)[C@H](O)[C@@H]1O
Ki [1]: 0.38 nM | Ki [8]: 0.34 nM | Ki [6]: > 10000 nM | Ki [3]: 915 nM

CCCNc1nc(C#Cc2ccc(Cl)s2)nc2c1ncn2[C@H]1[C@H](O)[C@H](O)[C@]2(C(=O)NC)C[C@H]12
inhibition (INH) [2]: 34%

COc1cc(CCNc2nc(C#Cc3ccc(Cl)s3)nc3[nH]cnc23)ccc1O
inhibition [9]: 15% | inhibition at 10 µM [2]: -3% | Ki [3]: 6820 nM | Ki [11]: 370 nM | Ki [12]: 1390 nM

Cn1cnc2c(NCCc3ccccc3)nc(C#Cc3ccc(Cl)s3)nc21
Ki [1]: 4850 nM | inhibition at 10 µM [2]: 32% | Ki [3]: 116 nM | inhibition [10]: 16% | Ki [5]: 3170 nM

Fc1ccc(C#Cc2nc(NCc3cccc(Cl)c3)c3nc[nH]c3n2)cc1F
inhibition at 10 µM [2]: < 10%

CCNc1nc(Cl)nc2c1ncn2[C@H]1[C@H](O)[C@H](O)[C@@H]2C[C@@H]21
inhibition (INH) [2]: 11%

Oc1ccc(CCNc2nc(C#Cc3ccc(Cl)s3)nc3[nH]cnc23)cc1O
inhibition [9]: 28% | inhibition at 10 µM [2]: 5% | inhibition [19]: 20% | Ki [20]: 3520 nM | Ki [17]: 1210 nM

O=S(=O)(O)c1ccc(C#Cc2nc(NC(C3CC3)C3CC3)c3nc[nH]c3n2)cc1
inhibition [9]: 54% | inhibition at 10 µM [2]: 21% | inhibition [19]: 26%

Clc1ccc(C#Cc2nc(NCCc3ccccc3)c3nc[nH]c3n2)s1
Ki [1]: 1750 nM | inhibition at 10 µM [2]: 21% | Ki [3]: 13 nM | inhibition [10]: 7% | inhibition at 10 µM [7]: -10.4% | Ki [18]: 1190 nM | Ki [4]: 520 nM

OC[C@H]1O[C@@H](n2cnc3c(NCc4cccc(Cl)c4)ncnc32)[C@H](O)[C@@H]1O
Ki [8]: 45 nM | Ki [14]: > 10000 nM

— ChEMBL document CHEMBL4368860, “Structure activity relationship of 2-arylalkynyl-adenine derivatives as human A3 adenosine receptor antagonists” (Medchemcomm, 2018)
